Values of other authors, collected in patent publication US20220288054A1, “COMPOSITIONS AND METHODS TO TREAT NON-ALCOHOLIC FATTY LIVER DISEASES (NAFLD)” (Coherus Biosciences, Inc., priority 2019, published 2022).

Tests used:
[1] = monotherapy, STELLAR-4 phase 3
[2] = system: mouse adipocytes
[3] = system: diabetic rodents; details: administered to diabetic rodents

Question: Which safety profile (289 patients, 1 year of therapy) does the source give for `CCCCOCCOc1ccc(-c2ccc3c(c2)/C=C(/C(=O)Nc2ccc([S@@+]([O-])Cc4cncn4CCC)cc2)CCCN3CC(C)C)cc1` [Cenicriviroc] here?
Answer: excellent safety profile

Question: What about the liver fibrosis improvement (289 patients, after 1 year of therapy) of the same molecule?
Answer: consistently demonstrated liver fibrosis improvement

Question: And the antifibrotic activity (adult patients with NASH and fibrosis, phase 2b)?
Answer: provided antifibrotic activity

Question: And the tolerability (adult patients, oral, phase 2b)?
Answer: well-tolerated

Question: For `Cc1cc(F)c(C(=O)Nc2cccc(-c3nncn3C(C)C)n2)cc1-n1cnc(C2CC2)c1` [selonsertib], which primary endpoint [1] is on record?
Answer: failed to meet the primary endpoint

B1: FGF21: amino acid sequence shown in FIG. 3 (SEQ ID NO: 3) (protein, listed as Homo sapiens)
chain: MDSDETGFEHSGLWVSVLAGLLLGACQAHPIPDSSPLLQFGGQVRQRYLYTDDAQQTEAHLEIREDGTVGGAADQSPESLLQLKALKPGVIQILGVKTSRFLCQRPDGALYGSLHFDPEACSFRELLLEDGYNVYQSEAHGLPLHLPGNKSPHRDPAPRGPARFLPLPGLPPALPEPPGILAPQPPDVGSSDPLSMVGPSQGRSPSYAS
Question: Which results are given for B1?
Answer: glucose uptake [2]: activates glucose uptake; blood glucose and triglyceride levels [3]: lower blood glucose and triglyceride levels
